# Experimental data reported in patent US20250042879A1, “HETEROCYCLIC SUBSTITUTED 1,3,4-THIADIAZOLE AND PYRIDAZINE COMPOUNDS AND METHODS OF USING THE SAME” (Rgenta Therapeutics, Inc., priority 2021, published 2025).
# Tested on: HTT (exclusion transcript)
# Assay: RT-qPCR assay to quantify changes in HTT splice isoforms: exclusion transcript
# Assay type: cell-based
# Conditions: Homo sapiens, SK-N-SH cells, approximately 96 hours, GAPDH reference
# Procedure: (§1) SK—N—SH cells were seeded at 8.5e3 per well in a 96 well plate, in […] (×4 plates, quadruplicate) and treated with the indicated compounds at different concentrations with a final DMSO concentration of 0.5%. Vehicle controls were set up by diluting DMSO 1:200. Cells were returned to a humidified incubator at 37° C., 5% CO2 and treated for approximately 96 hours.
# (§2) RNA was isolated from each well using QIAGEN RNeasy mini columns (cat #74004) as per the manufacturer's instructions. Each condition was done in quadruplicate as mentioned above to allow for adequate starting template for downstream analyses. These quadruplicates were pooled (by condition) into single replicates at the cell lysis step. Reverse-transcription was done using the Applied Biosystems High-Capacity cDNA Reverse Transcription Kit (cat #4368814), per the manufacturer's instructions, using approximately half of the harvested RNA. The cDNA was diluted 1:10 in nuclease-free water, and qPCR was done using Applied Biosystems PowerUp SYBR Green Master Mix (cat #A25742) per the manufacturer's instructions. Cycling conditions are primers are detailed below. Each sample was run in technical duplicates.
# (§3) Data were analyzed using the 2-DDCT method. GAPDH was used as the reference gene, and vehicle (i.e. DMSO only) treated cells were used as the reference/untreated cell populations. Relative expression of the HTT transcripts was plotted using Graphpad Prism.
row,SMILES,EC50
1,"Cc1cn2cc(-c3ccc(-c4ccc(C5CN(C)C5)nn4)c(O)c3)cc(F)c2n1 [Compound 12, 5-{8-fluoro-2-methylimidazo[1,2-a]pyridin-6-yl}-2-[6-(1-methylazetidin-3-yl)pyridazin-3-yl]phenol]",< 50 nM
2,"Cn1cc2cc(-c3ccc(-c4ccc(C5CN(C6CCOCC6)C5)nn4)c(O)c3)ccc2n1 [Compound 22, 5-(2-methyl-2H-indazol-5-yl)-2-{6-[1-(oxan-4-yl)azetidin-3-yl]pyridazin-3-yl}phenol]",< 50 nM
3,"CCN1CC(c2ccc(-c3ccc(-c4cc(C)c5nc(C)cn5c4)cc3O)nn2)C1 [Compound 36, 5-{2,8-dimethylimidazo[1,2-a]pyridin-6-yl}-2-[6-(1-ethylazetidin-3-yl)pyridazin-3-yl]phenol]",50 to 500 nM

# Tested on: HTT (inclusion transcript)
# Assay: RT-qPCR assay to quantify changes in HTT splice isoforms: inclusion transcript
# Assay type: cell-based
# Conditions: Homo sapiens, SK-N-SH cells, approximately 96 hours, GAPDH reference
# Procedure: as §1, §2, §3
row,SMILES,EC50
1,"Cc1cn2cc(-c3ccc(-c4ccc(C5CN(C)C5)nn4)c(O)c3)cc(F)c2n1 [Compound 12, 5-{8-fluoro-2-methylimidazo[1,2-a]pyridin-6-yl}-2-[6-(1-methylazetidin-3-yl)pyridazin-3-yl]phenol]",500 to 1000 nM

# Tested on: HTT
# Assay: Mini-gene reporter assay-HTT (firefly luciferase, exon inclusion)
# Assay type: cell-based
# Conditions: HTT Minigene, 5 μM; read-out: % Efficacy at 5 μM
# Outline: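 HEK293 cells transiently transfected with a pcDNA3.1 mini-gene carrying the alternatively skipped exon with flanking introns and exons fused to firefly luciferase were incubated with compound, in duplicate. Exon inclusion raises luciferase luminescence. EC50 came from Levenberg-Marquardt curve fitting.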
row,SMILES,Emax at 5 µM
1,COCC(C)N1CC(c2ccc(-c3ccc(-c4cc(OC)c5nn(C)cc5c4)cc3O)nn2)C1 (stereo not drawn) [Compound 143],> 750%
2,COc1cc(-c2ccc(-c3ccc(C4CN(C5CCC(OC)CC5)C4)nn3)c(O)c2)cc2cn(C)nc12 (stereo not drawn) [Compound 144],> 750%
3,COc1cc(-c2ccc(-c3ccc(C4CN(C5CCOC(C)C5)C4)nn3)c(O)c2)cc2cn(C)nc12 (stereo not drawn) [Compound 145],25 to 75%
4,COc1cc(-c2ccc(-c3ccc(C4CN(C5CCOC(C)(C)C5)C4)nn3)c(O)c2)cc2cn(C)nc12 (stereo not drawn) [Compound 146],25 to 75%
5,COc1cc(-c2ccc(-c3ccc(C4CN(CC5CCCOC5)C4)nn3)c(O)c2)cc2cn(C)nc12 (stereo not drawn) [Compound 147],> 750%
6,COc1cc(-c2ccc(-c3ccc(C4CN(C(C)COC(C)C)C4)nn3)c(O)c2)cc2cn(C)nc12 (stereo not drawn) [Compound 148],25 to 75%
7,COc1cc(-c2ccc(-c3ccc(C4CN(Cc5nc(C)ccc5O)C4)nn3)c(O)c2)cc2cn(C)nc12 [Compound 149],25 to 75%
8,COc1cc(-c2ccc(-c3ccc(C4CN(Cc5cccnc5C)C4)nn3)c(O)c2)cc2cn(C)nc12 [Compound 150],25 to 75%
9,COc1cc(-c2ccc(-c3ccc(C4CN(C(C)C5CCOC5)C4)nn3)c(O)c2)cc2cn(C)nc12 (stereo not drawn) [Compound 151],> 750%
10,CCn1ccc(CN2CC(c3ccc(-c4ccc(-c5cc(OC)c6nn(C)cc6c5)cc4O)nn3)C2)c1 [Compound 152],< 25%
11,COc1ccc(CN2CC(c3ccc(-c4ccc(-c5cc(OC)c6nn(C)cc6c5)cc4O)nn3)C2)cn1 [Compound 153],< 25%
12,COc1cc(-c2ccc(-c3ccc(C4CN(C5CCCOCC5)C4)nn3)c(O)c2)cc2cn(C)nc12 (stereo not drawn) [Compound 155],> 750%
13,COc1cc(-c2ccc(-c3ccc(C4CN(C(C)C5CCOCC5)C4)nn3)c(O)c2)cc2cn(C)nc12 (stereo not drawn) [Compound 156],> 750%
14,COc1cc(-c2ccc(-c3ccc(C4CN(C(C)C5CCC5)C4)nn3)c(O)c2)cc2cn(C)nc12 (stereo not drawn) [Compound 157],> 750%
15,COc1cc(-c2ccc(-c3ccc(C4CN(C(C)CC5CCOC5)C4)nn3)c(O)c2)cc2cn(C)nc12 (stereo not drawn) [Compound 158],> 750%
16,COc1cc(-c2ccc(-c3ccc(C4CN(Cc5ccc(O)nc5)C4)nn3)c(O)c2)cc2cn(C)nc12 [Compound 159],25 to 75%
17,COc1cc(-c2ccc(-c3ccc(C4CN(C5CC(OC)C5)C4)nn3)c(O)c2)cc2cn(C)nc12 (stereo not drawn) [Compound 160],25 to 75%
18,COc1cc(-c2ccc(-c3ccc(C4CN(Cc5cc(C6CC6)[nH]n5)C4)nn3)c(O)c2)cc2cn(C)nc12 [Compound 161],25 to 75%
19,COc1cc(-c2ccc(-c3ccc(C4CN(Cc5cnc(C)o5)C4)nn3)c(O)c2)cc2cn(C)nc12 [Compound 162],25 to 75%
20,CCOC1CC(N2CC(c3ccc(-c4ccc(-c5cc(OC)c6nn(C)cc6c5)cc4O)nn3)C2)C1 (stereo not drawn) [Compound 163],25 to 75%
21,COc1cc(-c2ccc(-c3ccc(C4CN(C5CCC(C#N)CC5)C4)nn3)c(O)c2)cc2cn(C)nc12 (stereo not drawn) [Compound 164],> 750%
22,COc1cc(-c2ccc(-c3ccc(C4CN(CC5CCSCC5)C4)nn3)c(O)c2)cc2cn(C)nc12 [Compound 167],25 to 75%
23,COc1cc(-c2ccc(-c3ccc(C4CN(CCC5CCOCC5)C4)nn3)c(O)c2)cc2cn(C)nc12 [Compound 168],> 750%

row,SMILES,Emax at 5 µM
1,COc1cc(-c2ccc(-c3ccc(C4CN(CC(C)CCC#N)C4)nn3)c(O)c2)cc2cn(C)nc12 (stereo not drawn) [Compound 169],> 750%
2,COc1cc(-c2ccc(-c3ccc(C4CN(Cc5ocnc5C)C4)nn3)c(O)c2)cc2cn(C)nc12 [Compound 170],< 25%
3,COc1cc(-c2ccc(-c3ccc(C4CN(C5CC6(CCOCC6)C5)C4)nn3)c(O)c2)cc2cn(C)nc12 [Compound 171],25 to 75%
4,COc1cc(-c2ccc(-c3ccc(C4CN(C5CCOC6(CCC6)C5)C4)nn3)c(O)c2)cc2cn(C)nc12 (stereo not drawn) [Compound 172],25 to 75%
5,COc1cc(-c2ccc(-c3ccc(C4CN(C(C)Cc5cnccn5)C4)nn3)c(O)c2)cc2cn(C)nc12 (stereo not drawn) [Compound 173],25 to 75%
6,COc1cc(-c2ccc(-c3ccc(C4CN(CC5(SC)CC5)C4)nn3)c(O)c2)cc2cn(C)nc12 [Compound 174],25 to 75%
7,CCc1ncc(CN2CC(c3ccc(-c4ccc(-c5cc(OC)c6nn(C)cc6c5)cc4O)nn3)C2)cn1 [Compound 175],25 to 75%
8,CCCC(CN1CC(c2ccc(-c3ccc(-c4cc(OC)c5nn(C)cc5c4)cc3O)nn2)C1)OC (stereo not drawn) [Compound 176],25 to 75%
9,COc1cc(-c2ccc(-c3ccc(C4CN(C5CC(C)OC5C)C4)nn3)c(O)c2)cc2cn(C)nc12 (stereo not drawn) [Compound 177],25 to 75%
10,CCC(C)(CN1CC(c2ccc(-c3ccc(-c4cc(OC)c5nn(C)cc5c4)cc3O)nn2)C1)OC (stereo not drawn) [Compound 178],< 25%
11,COCC1CCC(N2CC(c3ccc(-c4ccc(-c5cc(OC)c6nn(C)cc6c5)cc4O)nn3)C2)CC1 (stereo not drawn) [Compound 179],25 to 75%
12,COc1cc(-c2ccc(-c3ccc(C4CN(Cc5ccc(C)nn5)C4)nn3)c(O)c2)cc2cn(C)nc12 [Compound 180],25 to 75%
13,COc1cc(-c2ccc(-c3ccc(C4CN(Cc5ccc(CO)cc5)C4)nn3)c(O)c2)cc2cn(C)nc12 [Compound 181],25 to 75%
14,COc1cc(-c2ccc(-c3ccc(C4CN(Cc5cnsc5)C4)nn3)c(O)c2)cc2cn(C)nc12 [Compound 182],25 to 75%
15,COc1cc(-c2ccc(-c3ccc(C4CN(C5CCCSCC5)C4)nn3)c(O)c2)cc2cn(C)nc12 (stereo not drawn) [Compound 183],> 750%
16,COc1cc(-c2ccc(-c3ccc(C4CN(Cc5cc6n(n5)CCC6)C4)nn3)c(O)c2)cc2cn(C)nc12 [Compound 184],25 to 75%
17,COc1cc(-c2ccc(-c3ccc(C4CN(CC5CC6CC6C5)C4)nn3)c(O)c2)cc2cn(C)nc12 (stereo not drawn) [Compound 185],25 to 75%
18,COc1cc(-c2ccc(-c3ccc(C4CN(CC5CCC6CC6C5)C4)nn3)c(O)c2)cc2cn(C)nc12 (stereo not drawn) [Compound 186],25 to 75%
19,COc1cc(-c2ccc(-c3ccc(C4CN(C(C)C5CCCCO5)C4)nn3)c(O)c2)cc2cn(C)nc12 (stereo not drawn) [Compound 187],25 to 75%
20,COc1cc(-c2ccc(-c3ccc(C4CN(C5CC6(COC(C)C6)C5)C4)nn3)c(O)c2)cc2cn(C)nc12 (stereo not drawn) [Compound 188],25 to 75%
21,COc1cc(-c2ccc(-c3ccc(C4CN(Cc5ccn(C(C)C)n5)C4)nn3)c(O)c2)cc2cn(C)nc12 [Compound 189],< 25%
22,COc1cc(-c2ccc(-c3ccc(C4CN(CC5C6CCCCC65)C4)nn3)c(O)c2)cc2cn(C)nc12 (stereo not drawn) [Compound 190],25 to 75%
23,COc1cc(-c2ccc(-c3ccc(C4CN(Cc5cn(C(C)C)cn5)C4)nn3)c(O)c2)cc2cn(C)nc12 [Compound 191],25 to 75%

# Same assay, conditions: Homo sapiens; HTT mini-gene firefly luciferase reporter transiently transfected into HEK293 cells
row,SMILES,EC50
1,"Cc1cn2cc(-c3ccc(-c4ccc(C5CN(C)C5)nn4)c(O)c3)cc(F)c2n1 [Compound 12, 5-{8-fluoro-2-methylimidazo[1,2-a]pyridin-6-yl}-2-[6-(1-methylazetidin-3-yl)pyridazin-3-yl]phenol]",50 to 500 nM
2,"Cn1cc2cc(-c3ccc(-c4ccc(C5CN(C6CCOCC6)C5)nn4)c(O)c3)ccc2n1 [Compound 22, 5-(2-methyl-2H-indazol-5-yl)-2-{6-[1-(oxan-4-yl)azetidin-3-yl]pyridazin-3-yl}phenol]",500 to 1000 nM
3,"CCN1CC(c2ccc(-c3ccc(-c4cc(C)c5nc(C)cn5c4)cc3O)nn2)C1 [Compound 36, 5-{2,8-dimethylimidazo[1,2-a]pyridin-6-yl}-2-[6-(1-ethylazetidin-3-yl)pyridazin-3-yl]phenol]",≥ 1000 nM
4,"Cc1cc2cc(-c3ccc(-c4ccc(C5CN(C6CCOCC6)C5)nn4)c(O)c3)ccn2n1 [Compound 192, 5-(2-methylpyrazolo[1,5-a]pyridin-5-yl)-2-(6-(1-(tetrahydro-2H-pyran-4-yl)azetidin-3-yl)pyridazin-3-yl)phenol 2,2,2-trifluoroacetate]",≥ 1000 nM
